Data as given in US10005767B2, “Compositions and methods for inhibition of the JAK pathway” (Rigel Pharmaceuticals, Inc., priority 2009, dated 2018).
Like-named read-outs stand apart in the source and are kept apart here.

System: human primary T-cells, IL-2 stimulated proliferation (JAK-1 and JAK-3 dependent; reported as JAK3 activity)
Test: Human primary T-cell proliferation stimulated by IL-2 (Example 3)
Assay type: cell-based
Conditions: tested under conditions described in Example 3 (IL-2 stimulated human primary T-cell proliferation), read-out: ability to inhibit JAK3 activity, IC50 range (Table V)
How it was run: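 Peripheral-blood human T-cells pre-activated via TCR/CD28, IL-2-starved overnight, then cultured 72 h at 37 °C with compound in Yssel's medium containing IL-2 (80 U/mL in cell suspension). Proliferation read as viable-cell ATP by CellTiter-Glo luminescence; reduction versus control taken as JAK pathway inhibition.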

Structure (SMILES) | IC50 (Homo sapiens, T-cell) [nM] | IC50 [nM]
Cc1cnc(Nc2ccc(OCCN(C)C)cc2)nc1Nc1ccc2oc(=O)[nH]c2c1 [Compound I-426, 5-{2-[4-(2-Dimethylamino-ethoxy)-phenylamino]-5-methyl-pyrimidin-4-ylamino}-3H-benzooxazol-2-one] | < 500 | 
Cc1cnc(Nc2ccc3c(c2)CC(=O)N3C)nc1Nc1ccc2oc(=O)[nH]c2c1 [IV-27, 5-(5-methyl-2-(1-methyl-2-oxoindolin-5-ylamino)pyrimidin-4-ylamino)benzo[d]oxazol-2(3H)-one] | < 500 | 
Cc1cc(Nc2ncc(C)c(Nc3ccc4oc(=O)[nH]c4c3)n2)cc(OC(F)(F)F)c1 [Compound I-379, 5-methyl-N2-(3-methyl-5-trifluoromethoxy)phenyl-N4-(2-oxo-2,3-dihydro-1,3-benzoxazol-5-yl)-2,4-pyrimidinediamine] |  | < 500
Cc1cnc(Nc2c(F)cc(F)cc2F)nc1Nc1ccc2oc(=O)[nH]c2c1 [IV-59, 5-[5-Methyl-2-(2,4,6-trifluoro-phenylamino)-pyrimidin-4-ylamino]-3H-benzooxazol-2-one] | > 10000 | 
COc1cc(C)cc(Nc2ncc(C)c(Nc3cc(F)c4oc(=O)[nH]c4c3)n2)c1 [Compound I-430, 7-fluoro-5-(2-(3-methoxy-5-methylphenylamino)-5-methylpyrimidin-4-ylamino)benzo[d]oxazol-2(3H)-one] | < 500 | 
Cc1cnc(Nc2ccc(N3CCN(C)CC3)c(F)c2)nc1Nc1ccc2oc(=O)[nH]c2c1 [Compound I-281, N2-[3-fluoro-4-(4-methylpiperazino)]phenyl-5-methyl-N4-(2-oxo-2,3-dihydro-1,3-benzoxazol-5-yl)-2,4-pyrimidinediamine] |  | < 500
Cc1cnc(Nc2ccc(C(C)N3CCC3)cc2)nc1Nc1ccc2oc(=O)[nH]c2c1 (stereo not drawn) [Compound I-201, 5-(2-(4-(1-(azetidin-1-yl)ethyl)phenylamino)-5-methylpyrimidin-4-ylamino)benzo[d]oxazol-2(3H)-one] | < 500 | 
COCCN1C(=O)C(C)(C)Oc2cc(Nc3ncc(C)c(Nc4ccc5oc(=O)[nH]c5c4)n3)cnc21 [IV-45, N2-[2,2-dimethyl-4-(2-methoxyethyl)-2H-pyrido[3,2-b][1,4]oxazin-3(4H)-one-7-yl]-5-methyl-N4-(2-oxo-2,3-dihydro-1,3-benzoxazol-5-yl)-2,4-pyrimidinediamine] | < 500 | 
Cc1cnc(Nc2ccc(N(C)S(C)(=O)=O)cc2)nc1Nc1ccc2c(c1)oc(=O)n2C [Compound I-95, N2-((4-methylsulfonyl-N-methylamino)phenyl)-N4-(3-methyl-2-oxo-2,3-dihydrobenzo[d]oxazol-6-yl)-5-methylpyrimidine-2,4-diamine] |  | < 500
COc1ccc(Nc2ncc(C)c(Nc3ccc4oc(=O)[nH]c4c3)n2)cc1OC(F)F [Compound I-116, N2-(3-(difluoromethoxy)-4-methoxyphenyl)-N4-(benzo[d]oxazol-2(3H)-on-5-yl)-5-methylpyrimidine-2,4-diamine] | < 500 | 
Cc1cnc(Nc2cccc(-c3cccnc3)c2)nc1Nc1ccc2oc(=O)[nH]c2c1 [Compound I-290, 5-methyl-N4-(2-oxo-2,3-dihydro-1,3-benzoxazol-5-yl)-N2-[3-(pyridin-3-yl)]phenyl-2,4-pyrimidinediamine] |  | < 500
Cc1cnc(Nc2ccc(N[C@H]3CCCNC3)nc2)nc1Nc1ccc2oc(=O)[nH]c2c1 [II-104, (S)-5-(5-methyl-2-(6-(piperidin-3-ylamino)pyridin-3-ylamino)pyrimidin-4-ylamino)benzo[d]oxazol-2(3H)-one] | < 500 | 
Cc1cnc(Nc2ccc(C(=O)NC3CCC3)cc2)nc1Nc1ccc2oc(=O)n(COP(=O)(O)O)c2c1 [Compound I-150, (5-(2-(4-(cyclobutylcarbamoyl)phenylamino)-5-methylpyrimidin-4-ylamino)-2-oxobenzo[d]oxazol-3(2H)-yl)methyl dihydrogen phosphate] | < 500 | 
Cc1ccc(Nc2ncc(C)c(Nc3ccc4c(c3)oc(=O)n4C)n2)cc1NS(C)(=O)=O [Compound I-83, N2-((3-methylsulfonylamino-4-methyl)phenyl)-N4-(3-methyl-2-oxo-2,3-dihydrobenzo[d]oxazol-6-yl)-5-methylpyrimidine-2,4-diamine] |  | < 500
Cc1cnc(Nc2cccc(C#N)c2)nc1Nc1ccc2oc(=O)[nH]c2c1 [Compound I-26, N4-(benzo[d]oxazol-2(3H)-on-5-yl)-N2-(3-cyanophenyl)-5-methylpyrimidine-2,4-diamine] | < 500 | 
Cc1cnc(Nc2ccc(C(=O)N3CCN(CC(C)C)CC3)nc2)nc1Nc1ccc2oc(=O)[nH]c2c1 [II-47, 5-{2-[6-(4-Isobutyl-piperazine-1-carbonyl)-pyridin-3-ylamino]-5-methyl-pyrimidin-4-ylamino}-3H-benzooxazol-2-one] | < 500 | 
Cc1cnc(Nc2ccc(OC(F)F)c(Cl)c2)nc1Nc1ccc2oc(=O)[nH]c2c1 [Compound I-314, N2-(3-chloro-4-difluoromethoxy)phenyl-5-methyl-N4-(2-oxo-2,3-dihydro-1,3-benzoxazol-5-yl)-2,4-pyrimidinediamine] |  | < 500

Structure (SMILES) | IC50 (Homo sapiens, T-cell) [nM] | IC50 [nM]
Cc1cnc(Nc2ccc(F)c(-c3cccnc3)c2)nc1Nc1ccc2oc(=O)[nH]c2c1 [Compound I-472, 5-(2-(4-fluoro-3-(pyridin-3-yl)phenylamino)-5-methylpyrimidin-4-ylamino)benzo[d]oxazol-2(3H)-one] | < 500 | 
CCN(CC)C(C)c1cccc(Nc2ncc(C)c(Nc3ccc4oc(=O)[nH]c4c3)n2)c1 (stereo not drawn) [Compound I-216, 5-(2-(3-(1-(diethylamino)ethyl)phenylamino)-5-methylpyrimidin-4-ylamino)benzo[d]oxazol-2(3H)-one] | < 500 | 
Cc1cnc(Nc2cnc3c(c2)OCC(=O)N3)nc1Nc1ccc2oc(=O)[nH]c2c1 [IV-46, 5-methyl-N4-(2-oxo-2,3-dihydro-1,3-benzoxazol-5-yl)-N2-(2H-pyrido[3,2-b][1,4]oxazin-3 (4H)-one-7-yl)-2,4-pyrimidinediamine] | < 500 | 
Cc1cnc(Nc2cnc3onc(C)c3c2)nc1Nc1ccc2oc(=O)[nH]c2c1 [IV-43, 5-methyl-N2-(3-methylisoxazolo[5,4-b]pyridin-5-yl)-N4-(2-oxo-2,3-dihydro-1,3-benzoxazol-5-yl)-2,4-pyrimidinediamine] | < 500 | 
COc1cc(Nc2ncc(C)c(Nc3ccc4oc(=O)n(COP(=O)(O)O)c4c3)n2)cc(C)c1F [Compound I-538, Sodium (5-(2-(4-fluoro-3-methoxy-5-methylphenylamino)-5-methylpyrimidin-4-ylamino)-2-oxobenzo[d]oxazol-3(2H)-yl)methyl phosphate] |  | 500 to 5000
Cc1cnc(Nc2ccc3c(n2)NC(=O)CO3)nc1Nc1ccc2oc(=O)[nH]c2c1 [IV-47, 5-methyl-N4-(2-oxo-2,3-dihydro-1,3-benzoxazol-5-yl)-N2-(2H-pyrido[3,2-b][1,4]oxazin-3 (4H)-one-6-yl)-2,4-pyrimidinediamine] |  | > 10000
Cc1cnc(Nc2ccc(OCCN3CCOCC3)c(Cl)c2)nc1Nc1ccc2oc(=O)[nH]c2c1 [Compound I-191, 5-{2-[3-Chloro-4-(2-morpholin-4-yl-ethoxy)-phenylamino]-5-methyl-pyrimidin-4-ylamino}-3H-benzooxazol-2-one] | < 500 | 
CCN(CC)C1CCN(C(C)c2cccc(Nc3ncc(C)c(Nc4ccc5oc(=O)[nH]c5c4)n3)c2)C1 (stereo not drawn) [Compound I-214, 5-(2-(3-(1-(3-(diethylamino)pyrrolidin-1-yl)ethyl)phenylamino)-5-methylpyrimidin-4-ylamino)benzo[d]oxazol-2(3H)-one] | < 500 | 
Cc1cnc(Nc2ccc3c(c2)OC(C)(C)C(=O)N3)nc1Nc1ccc2oc(=O)[nH]c2c1 [IV-50, N2-[2,2-dimethyl-2H-1,4-benzoxazin-3(4H)-one-7-yl]-5-methyl-N4-(2-oxo-2,3-dihydro-1,3-benzoxazol-5-yl)-2,4-pyrimidinediamine] | < 500 | 
Cc1cnc(Nc2ccc(C(C)(C)C)cc2)nc1Nc1ccc2oc(=O)[nH]c2c1 [Compound I-420, 5-(2-(4-tert-butylphenylamino)-5-methylpyrimidin-4-ylamino)benzo[d]oxazol-2(3H)-one] | < 500 | 
Cc1cnc(Nc2ccc(Cl)c(OC(F)(F)F)c2)nc1Nc1ccc2oc(=O)[nH]c2c1 [Compound I-180, 5-[2-(4-Chloro-3-trifluoromethoxy-phenylamino)-5-methyl-pyrimidin-4-ylamino]-3H-benzooxazol-2-one] | < 500 | 
Cc1cnc(Nc2ccc3c(c2)CN(CC(C)C)C3)nc1Nc1ccc2oc(=O)[nH]c2c1 [III-8, N4-(benzo[d]oxazol-2(3H)-on-5-yl)-N2-(2-isobutylisoindolin-5-yl)-5-methylpyrimidine-2,4-diamine] | < 500 | 
Cc1ccc(Nc2ncc(F)c(Nc3ccc4oc(=O)n(C)c4c3)n2)cc1NS(C)(=O)=O [Compound I-85, N2-((3-methylsulfonylamino-4-methyl)phenyl)-N4-(3-methyl-2-oxo-2,3-dihydrobenzo[d]oxazol-5-yl)-5-fluoropyrimidine-2,4-diamine] |  | 500 to 5000
Cc1cnc(Nc2cc(C)c(F)c(C)c2)nc1Nc1ccc2oc(=O)n(COP(=O)(OC(C)(C)C)OC(C)(C)C)c2c1 [Compound I-450, N4-{3-[bis(1,1-dimethylethoxy)]phosphinyloxymethyl-2-oxo-2,3-dihydro-1,3-benzoxazol-5-yl}-N2-(3,5-dimethyl-4-fluoro)phenyl-5-methyl-2,4-pyrimidinediamine] |  | > 10000
COc1cccc(Nc2ncc(C)c(Nc3ccc4oc(=O)[nH]c4c3)n2)c1C [Compound I-328, N2-(3-methoxy-2-methyl)phenyl-5-methyl-N4-(2-oxo-2,3-dihydro-1,3-benzoxazol-5-yl)-2,4-pyrimidinediamine] |  | 500 to 5000
Cc1cnc(Nc2ccc3cnn(C)c3c2)nc1Nc1ccc2oc(=O)[nH]c2c1 [IV-41, 5-methyl-N2-(1-methylindazol-6-yl)-N4-(2-oxo-2,3-dihydro-1,3-benzoxazol-5-yl)-2,4-pyrimidinediamine] | < 500 | 
